In brackets after ≈: the same amount, converted by molar mass.
Assays:
Type in all cases: functional
[1] = test system: Escherichia coli; assay: Antibacterial activity against Escherichia coli ATCC 25922
[2] = test system: Pseudomonas aeruginosa; assay: Antibacterial activity against Pseudomonas aeruginosa ATCC 27853
[3] = test system: Klebsiella pneumoniae; assay: Antibacterial activity against Klebsiella pneumoniae A-651

Q: `CCOc1ccc(-c2cc3n(c2)C(=O)N(CC[C@](C)(C(=O)NO)S(C)(=O)=O)C3)c(Cl)c1` was tested. Which MIC [1] did it give?
A: Its MIC is at most 0.063 µg/mL.

Q: And the MIC [2]?
A: The MIC was 4 µg/mL (≈ 8.51 µM).

Q: And the MIC [3]?
A: Its MIC is 0.125 µg/mL (≈ 0.266 µM).

Q: Which MIC [1] does the source give for `C[C@@](CCN1Cc2cc(C#Cc3ccc(OCCO)cc3)cn2C1=O)(C(=O)NO)S(C)(=O)=O` here?
A: Its MIC is 0.125 µg/mL (≈ 0.263 µM).

Q: And the MIC [2]?
A: Its MIC is 1 µg/mL (≈ 2.1 µM).

Q: What about the MIC [3] of the same compound?
A: Its MIC is 0.5 µg/mL (≈ 1.05 µM).

Q: How did the MIC [1] turn out when `C[C@@](CCN1Cc2cc(C#Cc3ccc(COC(N)=O)cc3)cn2C1=O)(C(=O)NO)S(C)(=O)=O` was run?
A: The MIC was at most 0.063 µg/mL.

Q: What about the MIC [2] of the same compound?
A: Its MIC is 0.5 µg/mL (≈ 1.02 µM).

Q: And the MIC [3]?
A: Its MIC is 0.25 µg/mL (≈ 0.512 µM).

Q: Which results are given for `C[C@@](CCN1Cc2cc(C#Cc3ccc(C4(CN)CC4)cc3)cn2C1=O)(C(=O)NO)S(C)(=O)=O.O=CO`?
A: MIC [1]: 8 µg/mL; MIC [2]: 4 µg/mL; MIC [3]: 8 µg/mL

Q: For `C[C@@](CCN1Cc2cc(C#CC#C[C@@H]3C[C@@]3(F)CO)cn2C1=O)(C(=O)NO)S(C)(=O)=O`, which MIC [1] is on record?
A: Its MIC is 0.25 µg/mL (≈ 0.554 µM).

Q: And the MIC [2]?
A: Its MIC is 0.5 µg/mL (≈ 1.11 µM).

Q: What about the MIC [3] of the same compound?
A: The MIC was 0.25 µg/mL (≈ 0.554 µM).

Q: How did the MIC [1] turn out when `COc1ccc(-c2cc3n(c2)C(=O)N(CC[C@](C)(C(=O)NO)S(C)(=O)=O)C3)c(F)c1` was run?
A: The MIC was 0.125 µg/mL (≈ 0.284 µM).

Q: And the MIC [2]?
A: Its MIC is 1 µg/mL (≈ 2.28 µM).

Q: And the MIC [3]?
A: Its MIC is at most 0.063 µg/mL.

From ChEMBL document CHEMBL3751771, “LpxC Inhibitors as Effective Therapy Against Multidrug Resistant Bacterial Infections” (2015)
